Earlier results in publication PMC12281572.

assay: FTIR, 4-fluorophenol as donor (the pK_BHX database, per the paper); settings: CCl4; 25 C

| SMILES | pK_BHX (log10 Kf of the 1:1 H-bond complex with 4-fluorophenol, by FTIR) [log units] |
| --- | --- |
| CN1CCc2ccccc2C1 | 1.8 |
| CC12CCC(CC1=N[N+](=O)[O-])C2(C)C (centres unmarked) | 0.34 |
| CCN1C(=O)C=CC1=O | 0.68 |
| c1ccc(Cc2ccccc2)cc1 | -0.41 |
| [O-][n+]1cc(Cl)cc(Cl)c1 | 1.56 |
| CCN(CC)C(=O)Cl | 1.08 |
| ClC12CC3CC(CC(C3)C1)C2 | -0.18 |
| Nc1ncccn1 | 1.55 |
| NC12CC3CC(CC(C3)C1)C2 | 2.3 |
| N#Cc1ccccc1F | 0.64 |
| c1ccc(-c2ccnc3c2ccc2c(-c4ccccc4)ccnc23)cc1 | 3.26 |
| CC(C)N(C#N)C(C)C | 1.74 |
| Fc1cccnc1 | 1.35 |
| C1COCOC1 | 0.63 |
| N#Cc1c(F)c(F)c(F)c(F)c1F | 0.01 |
| O=C(C12CC3CC(CC(C3)C1)C2)C12CC3CC(CC(C3)C1)C2 | 1.17 |
| N#Cc1ccc(-c2ccccc2)cc1 | 0.83 |
| N#Cc1cccc(C(F)(F)F)c1 | 0.53 |
| C1=COCC1 | 0.53 |
| C1COCCOCCOCCOCCO1 | 1.12 |
| Cc1cccc(C)n1 | 2.14 |
| N#Cc1ccc(C(F)(F)F)cc1 | 0.54 |
| c1cnoc1 | 0.81 |
| Nc1ccccn1 | 2.12 |
| O=c1cccccc1 | 1.97 |
| c1ccc2scnc2c1 | 1.29 |

The next lines start with the values.

| pK_BHX (log10 Kf of the 1:1 H-bond complex with 4-fluorophenol, by FTIR) [log units] | SMILES |
| --- | --- |
| 0.9 | CCN(CC)c1ccc([N+](=O)[O-])cc1 |
| 1.94 | CCc1ccccn1 |
| 1.08 | COC(=O)c1ccc(OC)cc1 |
| -0.67 | C=CCCCCC |
| 2.22 | Cn1cncc1Br |
| 1.47 | CCN(C)Cc1ccccc1 |
| 2.01 | CCc1cccnc1 |
| 1.27 | CN(C)Cc1cccc(F)c1 |
| 2.26 | CCC(C)(C)N=CN(C)C |
| 2.0 | C=CCNC |
| 2.04 | CCCCN1CCCC1 |
| 2.33 | CCN(CC)c1ccc(C(=O)c2ccc(N(CC)CC)cc2)cc1 |
| 1.07 | CC(=Nc1ccc(Cl)cc1)Nc1ccc(Cl)cc1 |
| 2.52 | CC(C)CN=CN(C)C |
| 1.36 | CC(=Nc1ccc(Br)cc1)N(C)c1ccccc1 |
| 1.08 | CC(C)(C)C(=O)C12CC3CC(CC(C3)C1)C2 |
| 0.34 | CC12CCC(CC1=S)C2(C)C (centres unmarked) |
| 2.21 | Cc1ccc(S(=O)c2ccc(C)cc2)cc1 |
| 1.25 | CCc1ccc(C(C)=O)cc1 |
| 0.17 | CCCCCCCCSC |
| 1.11 | COc1ccccc1C=O |
| 0.23 | CN(C)n1cccc1 |
| 2.35 | C=Cn1ccnc1 |
| 0.82 | CC(=O)c1cccc(Cl)c1 |
| 1.76 | CC(=Nc1ccccc1)N(C)c1ccc(C)cc1 |
| 0.16 | CCCSC |
| 1.05 | CCOC(=O)c1ccc(C)cc1 |
